Laboratory results taken from paper PMC4747952, “Development of TASP0410457 (TASP457), a novel dihydroquinolinone derivative as a PET radioligand for central histamine H3 receptors” (EJNMMI Research, 2016).

Legend:
Sigma 1 receptor = biological target: T1, Sigma 1 receptor (Homo sapiens, UniProt Q99720); experiment: Sigma 1 receptor binding, [3H]pentazocine; conditions: Jurkat cell membranes; 4 nM [3H]pentazocine; read-out: Off-target binding Sigma 1, IC50
T1 construct: The membrane preparations were made from Jurkat cell lines; endogenous in cells; host or cells: Jurkat
Procedure: (§1) H) 6.86 [d, J = 8.67 Hz, 2 H]; MS [ESI/APCI Dual) [Positive) m/z; 381(M+H)+ ) .
(§2) Off-target binding of compounds
(§3) The membrane preparations were made from Jurkat cell lines, and were incubated in sigma 1 binding buffer (0.1% bovine serum albumin in 50 mM Tris, pH7.4) containing 4 nM [3H]pentazocine (PerkinElmer), and serial concentrations of the compound at 25°C for 2.5 h. The reaction was terminated by rapid filtration through a 96-well GF/C filter plate presoaked in 0.5% polyethyleneimine.
(§4) The filters were washed with ice-cold 50 mM Tris (pH7.4) three times, dried, and filled with Microscint-o. The radioactivity retained on the filter was counted using a TopCount NXT. Nonspecific binding was determined as the amount of radioactivity under the above-mentioned conditions in the presence of […] of haloperidol. The IC50 values were determined by nonlinear curve-fitting of the concentration-response data for each compound using Origin version 6.1087 (OriginLab Corporation, […]
(§5) Adrenergic 2c receptor binding
Human 2c receptor-expressing membrane preparations were purchased from PerkinElmer. The

Adrenergic α2c receptor = biological target: T2, Adrenergic α2c receptor (Homo sapiens, UniProt P18825); experiment: Adrenergic α2c receptor binding, [3H]MK-912; conditions: 0.08 nM [3H]MK-912; read-out: Off-target binding Adrenergic α2c, IC50
T2 construct: purchased PerkinElmer
T2 sequence (P18825 1-462): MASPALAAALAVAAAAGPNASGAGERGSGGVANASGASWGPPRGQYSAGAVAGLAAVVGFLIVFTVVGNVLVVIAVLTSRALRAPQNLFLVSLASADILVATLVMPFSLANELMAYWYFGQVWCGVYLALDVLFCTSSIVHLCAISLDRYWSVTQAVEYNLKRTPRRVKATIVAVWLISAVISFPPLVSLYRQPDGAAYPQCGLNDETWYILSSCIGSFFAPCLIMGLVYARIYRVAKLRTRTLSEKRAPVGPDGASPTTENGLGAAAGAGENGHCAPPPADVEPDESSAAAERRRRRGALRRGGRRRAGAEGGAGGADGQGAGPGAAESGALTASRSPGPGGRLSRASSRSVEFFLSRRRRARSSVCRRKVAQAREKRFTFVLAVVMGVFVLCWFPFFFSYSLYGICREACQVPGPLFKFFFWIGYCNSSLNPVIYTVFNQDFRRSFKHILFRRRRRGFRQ
Procedure: as §1, §2, §3, §4, §5
Human 2c receptor-expressing membrane preparations were purchased from PerkinElmer. The membranes were incubated in binding buffer (1 mM EDTA and 0.1% bovine serum albumin in 50 mM Tris, pH7.4) containing 0.08 nM [3H]MK-912 (PerkinElmer), and serial concentrations of the compound at 25°C for 1 h. The reaction was terminated by rapid filtration through a 96-well GF/C filter plate presoaked in 0.5% polyethyleneimine. […] The radioactivity retained on the filter was counted using a TopCount NXT. Nonspecific binding was determined as the amount of radioactivity under the conditions mentioned above in the presence of […] of rauwolscine. The IC50 values were determined as for sigma 1 receptor binding. […]
The reaction was terminated by rapid filtration through a 96-well GF/C filter plate presoaked in 0.5% polyethyleneimine. […] The radioactivity retained on the filter was counted using a TopCount NXT. Nonspecific binding was determined as the amount of radioactivity under the above-mentioned conditions in the presence of 1 µM of atropine.

[1] = Lipophilicity measurement (Log D); assay type: physicochemical; conditions: pH 7.4; octanol and phosphate buffer (pH7.4); read-out: Log D7.4
Procedure: Lipophilicity measurement
Log D was determined by partitioning each compound between an octanol and phosphate buffer […]
each layer using HPLC with ultraviolet (UV) detection.
(§6) Assays for P-glycoprotein-mediated transcellular transport of compounds LLC-GA5-COL300 cells expressing human P-glycoprotein were seeded at a density of 4.5 × 10^5 cells/cm2 onto polycarbonate membrane filters of 12-well cell culture insert plates and cultured at 37°C in a humidified incubator containing 5% CO2 for 3 days. After each cell monolayer was pre-incubated at 37°C for 20 min in Hank’s balanced salt solution containing 10 mM HEPES (HBSS buffer), transcellular transport experiments were initiated by adding the test compound solution to the apical or basal side of the cell culture inserts. HBSS buffer was sampled from the compartment opposite of that spiked with the test compounds at 0.5, 1, 1.5 and 2 h after initiation of the experiments, and concentrations of the test compounds were determined using LC-MS/MS. The apparent permeability coefficient (Papp) of the test compounds was calculated using the following equation:
(§7) Papp= dQ/dt / C0 / A Eq. 1, where dQ/dt represents the rate of permeation of the compounds, C0 is the initial concentration of the test compounds ([…]), and A is the area of the monolayer. The efflux ratio (ER) was defined as […]

P-glycoprotein (MDR1) = biological target: T3, P-glycoprotein (MDR1) (Homo sapiens, UniProt P08183); experiment: P-glycoprotein-mediated transcellular transport, LLC-GA5-COL300 cells; assay type: in vitro ADME; conditions: for susceptibility for P-glycoprotein (substrate or not): assumed criterion: efflux ratio (ER) exceeding 2.00; for efflux ratio at 2 h, 1 µM: human, LLC-PK1, ER=Papp, b to a/Papp, a to b, LLC-GA5-COL300 cells
T3 construct: expressed in transfected cells; host or cells: LLC-GA5-COL300
Procedure: as §6, §7
ER=Papp, b to a/Papp, a to b Eq. 2, where Papp, b to a and Papp, a to b represent Papp in the basal-to-apical (b to a) and apical-to-basal (a to b) directions, respectively. […]

Benzodiazepine (central) = experiment: Off-target binding (Cerep); set-up: unit of the concentration uncertain
Text: (§8) Off-target binding of compounds assessed using an in-house assay (M4) and a commercial battery (all
(§9) others) (Cerep, Celle L'Evescault, France).
(§10) Concentration % Inhibition Concentration % Inhibition Concentration % Inhibition […]

[2] = test system: Ca2+ channel (L, dihydropyridine site); experiment: Off-target binding (Cerep); set-up: unit of the concentration uncertain
Text: as §8, §9, §10

Glutamate Kainate = experiment: Off-target binding (Cerep); set-up: unit of the concentration uncertain
Text: as §8, §9

Imidazoline I2 = experiment: Off-target binding (Cerep); set-up: unit of the concentration uncertain
Text: as §8, §9

Opioid kappa (KOP) = experiment: Off-target binding (Cerep); set-up: unit of the concentration uncertain
Text: as §8, §9

Serotonin 5-HT1B = experiment: Off-target binding (Cerep); set-up: unit of the concentration uncertain
Text: as §8, §9

Serotonin 5-HT1D = experiment: Off-target binding (Cerep); set-up: unit of the concentration uncertain
Text: as §8, §9

[3] = Concentration 10 (unit uncertain)
[4] = Concentration 1 (unit uncertain)

T1 sequence (Q99720 whole entry): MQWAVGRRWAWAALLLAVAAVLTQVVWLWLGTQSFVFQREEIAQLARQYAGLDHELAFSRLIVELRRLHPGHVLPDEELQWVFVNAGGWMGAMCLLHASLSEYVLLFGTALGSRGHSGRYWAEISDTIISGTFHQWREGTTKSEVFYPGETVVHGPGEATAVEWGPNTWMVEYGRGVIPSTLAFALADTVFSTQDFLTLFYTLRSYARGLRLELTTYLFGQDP
T3 sequence (P08183 whole entry): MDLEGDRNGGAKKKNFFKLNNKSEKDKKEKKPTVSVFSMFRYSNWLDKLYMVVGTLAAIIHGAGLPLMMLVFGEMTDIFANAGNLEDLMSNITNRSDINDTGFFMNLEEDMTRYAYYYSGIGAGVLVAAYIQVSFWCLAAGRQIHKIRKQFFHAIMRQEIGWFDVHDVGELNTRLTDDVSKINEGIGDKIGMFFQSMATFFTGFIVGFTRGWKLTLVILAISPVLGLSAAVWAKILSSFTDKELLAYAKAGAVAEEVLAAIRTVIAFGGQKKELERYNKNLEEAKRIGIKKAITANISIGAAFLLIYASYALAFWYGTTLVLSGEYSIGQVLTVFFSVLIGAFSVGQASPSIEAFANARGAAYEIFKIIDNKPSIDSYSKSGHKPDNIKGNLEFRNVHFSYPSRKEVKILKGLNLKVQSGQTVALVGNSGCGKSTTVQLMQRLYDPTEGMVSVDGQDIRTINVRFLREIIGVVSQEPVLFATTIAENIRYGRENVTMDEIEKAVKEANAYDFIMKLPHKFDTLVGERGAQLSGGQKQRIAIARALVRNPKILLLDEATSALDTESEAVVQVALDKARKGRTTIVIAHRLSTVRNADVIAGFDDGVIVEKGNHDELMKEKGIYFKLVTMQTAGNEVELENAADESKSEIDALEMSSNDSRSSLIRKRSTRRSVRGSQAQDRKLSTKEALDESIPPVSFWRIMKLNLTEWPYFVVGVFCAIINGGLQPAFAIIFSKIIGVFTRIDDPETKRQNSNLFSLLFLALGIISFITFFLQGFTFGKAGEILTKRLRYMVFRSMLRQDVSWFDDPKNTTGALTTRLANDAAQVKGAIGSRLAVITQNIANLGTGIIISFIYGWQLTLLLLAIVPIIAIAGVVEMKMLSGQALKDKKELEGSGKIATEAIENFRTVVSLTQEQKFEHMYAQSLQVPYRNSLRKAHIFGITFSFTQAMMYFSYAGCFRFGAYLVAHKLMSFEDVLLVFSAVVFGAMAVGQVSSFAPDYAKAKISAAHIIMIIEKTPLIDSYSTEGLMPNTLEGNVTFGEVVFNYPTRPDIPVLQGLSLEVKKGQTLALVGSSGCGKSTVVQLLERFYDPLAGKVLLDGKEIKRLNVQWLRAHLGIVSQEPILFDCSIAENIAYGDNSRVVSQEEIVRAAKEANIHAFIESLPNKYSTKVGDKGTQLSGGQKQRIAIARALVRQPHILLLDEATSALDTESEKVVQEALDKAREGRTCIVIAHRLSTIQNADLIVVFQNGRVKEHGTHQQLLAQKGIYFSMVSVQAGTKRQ

| Structure (SMILES) | IC50 (Sigma 1 receptor) [nM] | IC50 (Adrenergic α2c receptor) [nM] | logD [1] | susceptibility for P-glycoprotein (substrate or not) (P-glycoprotein (MDR1)) | efflux ratio at 2 h, 1 µM (P-glycoprotein (MDR1)) | % Inhibition (Benzodiazepine (central); [3]) [%] | % Inhibition [2, 3] [%] | % Inhibition (Glutamate Kainate; [3]) [%] | % Inhibition (Imidazoline I2; [3]) [%] | % Inhibition (Opioid kappa (KOP); [3]) [%] | % Inhibition (Serotonin 5-HT1B; [3]) [%] | % Inhibition (Serotonin 5-HT1D; [3]) [%] | % Inhibition (Benzodiazepine (central); [4]) [%] | % Inhibition [2, 4] [%] | % Inhibition (Glutamate Kainate; [4]) [%] | % Inhibition (Imidazoline I2; [4]) [%] | % Inhibition (Opioid kappa (KOP); [4]) [%] | % Inhibition (Serotonin 5-HT1B; [4]) [%] | % Inhibition (Serotonin 5-HT1D; [4]) [%] |
| --- | --- | --- | --- | --- | --- | --- | --- | --- | --- | --- | --- | --- | --- | --- | --- | --- | --- | --- | --- |
| COc1ccc(N2C(=O)CCc3cc(OCCCN4CCC[C@H]4C)ccc32)cc1 [TASP0390136, 1-(4-methoxyphenyl)-6-{3-[(2R)-2-methylpyrrolidin-1-yl]propoxy}-3,4-dihydroquinolin-2(1H)-one] | 167 | > 1000 | 1.36 | P-glycoprotein substrates | 6.29 | -19 | 20 | -11 | 23 | 11 | -25 | 5 |  |  |  |  |  |  |  |
| COc1ccc(N2C(=O)CCc3cc(OC4CCN(C5CCC5)CC4)ccc32)cn1 [TASP0410457, 6-[(1-Cyclobutylpiperidin-4-yl)oxy]-1-(6-methoxypyridin-3-yl)-3,4-dihydroquinolin-2(1H)-one] | 379 | > 1000 | 1.79 | not a substrate of P-glycoprotein | 1.64 | -4 | -23 | -12 | 1 | -6 | 25 | 17 |  |  |  |  |  |  |  |
| COc1ccc(N2C(=O)CCc3cc(OC4CCN(C5CCC5)CC4)ccc32)cc1 [TASP0434988, 6-[(1-cyclobutylpiperidin-4-yl)oxy]-1-(4-methoxyphenyl)-3,4-dihydroquinolin-2(1H)-one] | 257 | 528 | 2.22 | P-glycoprotein substrates | 2.14 |  |  |  |  |  |  |  | -2 | -27 | 4 | 16 | -12 | 3 | -12 |
